The assay deals with NRG1-ERBB4 signaling. Briefly: Nrg1-ERBB4-PIK3R1 split TEV co-culture compound screen of the NIH Clinical Collection. In kind it is cell-based, human.
[1] abbreviates: compound screen of the NIH Clinical Collection, sheet raw data NCC-003, compounds ranked by Z-score.
[2] abbreviates: compounds at 10 μM, 24 h, PC12 split TEV assay cells co-cultured with Nrg1-expressing PC12 cells, analysed with cellHTS2.
Where [3] appears, read: NIH Clinical Collection NCC-003 raw data, compounds ranked by Z-score, 'flagged' given instead of a Z-score.

The source of these data is article PMC5653977 (EMBO Molecular Medicine, 2017).

Where a name gives a salt, the structure may show the parent alone.

Turning to `COc1cc(C[C@@H](CO)[C@H](CO)Cc2ccc(O)c(OC)c2)ccc1O` [SECOISOLARICIRESINOL], the Z-SCORE under setting [1] was -0.17.
Under setting [2], `C[C@]12C=CC(=O)C=C1CC[C@@H]1[C@@H]2C(=O)C[C@@]2(C)[C@H]1CC[C@]2(O)C(=O)CO` [Prednisone, reference compound] had a Z-SCORE of -0.15.
Regarding `CCN(CC)CCOC(=O)C(O)(c1ccccc1)c1ccccc1` [BENACTYZINE HYDROCHLORIDE], the Z-SCORE under setting [1] was determined as 2.48.
Still for that read-out and setting: the figure for `Clc1ccccc1C(c1ccccc1)(c1ccccc1)n1ccnc1` [CLOTRIMAZOLE] is -0.73.
The compound `CC(C)(C(=O)O)c1ccc(C(O)CCCN2CCC(C(O)(c3ccccc3)c3ccccc3)CC2)cc1` (stereo not drawn) [Allegra, reference compound] came in with a Z-SCORE under setting [2] of -0.84.
Turning to `CC1=C(/C=C/C(C)=C/C=C/C(C)=C\C(=O)O)C(C)(C)CCC1` [Isotretinoin, reference compound], under setting [2], the Z-SCORE was -0.41.
In turn, `CC1Cc2ccccc2N1NC(=O)c1ccc(Cl)c(S(N)(=O)=O)c1` (stereo not drawn) [INDAPAMIDE, reference compound] had a Z-SCORE under setting [2] of 0.07.
`C[C@]12C=CC(=O)C=C1CC[C@@H]1[C@@H]2[C@@H](O)C[C@@]2(C)[C@H]1CC[C@]2(O)C(=O)CO` [Prednisolone, reference compound] registered a Z-SCORE under setting [2] of -1.95.
Turning to MEDROXYPROGESTERONE, the Z-SCORE under setting [3] is given as -2.38.
For `NS(=O)(=O)c1cc2c(cc1Cl)N=CNS2(=O)=O` [Chlorothiazide, reference compound], under setting [2], the Z-SCORE is given as 0.42.
Compound `CC(COc1ccccc1)NC(C)C(O)c1ccc(O)cc1` (stereo not drawn) [Duvadilan, reference compound] yielded a Z-SCORE under setting [2] of -1.36.
In the case of `C[N+]1(C)CCC(OC(=O)C(O)(c2ccccc2)C2CCCC2)C1` (stereo not drawn) [Glycopyrrolate, reference compound], the Z-SCORE reads like this: under setting [1], 0; under setting [2], -0.44.
The compound `Oc1ccc(/C=C/c2cc(O)cc(O)c2)cc1` [Resveratrol] yielded a Z-SCORE under setting [1] of 2.61.
Consider `CC[C@H](C)C(=O)O[C@H]1CCC=C2C=C[C@H](C)[C@H](CC[C@@H]3C[C@@H](O)CC(=O)O3)[C@H]21` [mevastatin], for which the Z-SCORE entry under setting [3] is listed as “flagged”.
On to `CN1C(C(=O)Nc2ccccn2)=C(O)c2ccccc2S1(=O)=O` [Piroxicam], for which the Z-SCORE under setting [1] was 0.27.
Turning to `C[C@H]1C[C@H]2[C@@H]3CCC4=CC(=O)C=C[C@]4(C)[C@@]3(F)[C@@H](O)C[C@]2(C)[C@@]1(O)C(=O)CO` [Betamethasone, reference compound], the Z-SCORE under setting [2] is 3.82.
`CCCN[C@H]1CCc2nc(N)sc2C1.Cl` [PRAMIPEXOLE HCl]: the Z-SCORE under setting [1] is recorded as -0.74.
On to `CCn1cc(C(=O)O)c(=O)c2cc(F)c(N3CCNCC3)cc21` [NORFLOXACIN, reference compound], for which the Z-SCORE under setting [2] was -0.08.
Same read-out and setting: the figure for `Cn1cnc([N+](=O)[O-])c1Sc1ncnc2nc[nH]c12` [Azathioprine, reference compound] is 0.16.
Turning to `CCN(CC)C(=S)SSC(=S)N(CC)CC`, under setting [1], the Z-SCORE is on record as -0.22.
Same read-out and setting: the figure for `C[C@H]1COc2c(N3CCN(C)CC3)c(F)cc3c(=O)c(C(=O)O)cn1c23` [LEVOFLOXACIN] is -0.28; for `C[C@@H](O)[C@H]1C(=O)N2C(C(=O)O)=C(S[C@@H]3CN[C@H](C(=O)N(C)C)C3)[C@H](C)[C@H]12` [MEROPENEM] it is -0.25; for `C#C[C@]1(O)CC[C@H]2[C@@H]3CCc4cc(OC)ccc4[C@H]3CC[C@@]21C` [MESTRANOL] it is -0.21.
For the compound `O=c1[nH]c(=O)n([C@H]2C[C@H](O)[C@@H](CO)O2)cc1F` [Floxuridine, reference compound], the Z-SCORE under setting [2] is reported as -0.39.
`CCN(C(C)=O)c1cccc(-c2ccnc3c(C#N)cnn23)c1` [Zaleplon] gave a Z-SCORE under setting [1] of -0.02.
In the case of `OC(CCN1CCCCC1)(c1ccccc1)C1CCCCC1` (stereo not drawn) [Artane, reference compound], the Z-SCORE under setting [2] is listed as -0.35.
`Cc1nc2ccccn2c(=O)c1CCN1CCC(C(=O)c2ccc(F)cc2)CC1` [PIRENPERONE] returned a Z-SCORE under setting [1] of 1.82.
The same measure, in the same setting: the result for `NC(=O)OCCCc1ccccc1` [PHENPROBAMATE] reads -0.62; that for `CCOC(=O)C1(CCCCCCOc2ccc(Cl)cc2)CO1` (stereo not drawn), 0.96.
On to `Cc1ccccc1C(OCCN(C)C)c1ccccc1` (stereo not drawn) [Norflex, reference compound], for which, under setting [2], the Z-SCORE stood at 0.74.
On the same count and under the same terms, the result for `CCc1c(C)[nH]c2c1C(=O)C(CN1CCOCC1)CC2` (stereo not drawn) [Moban, reference compound] reads -0.44.
For the compound `CC(=O)O[C@]1(C(C)=O)CC[C@H]2[C@@H]3C=C(C)C4=CC(=O)CC[C@]4(C)[C@H]3CC[C@@]21C` [MEGESTROL ACETATE], under setting [3], the Z-SCORE is -1.44.
Consider `Cc1cccc(C)c1OCC(C)N` (stereo not drawn) [Mexitil, reference compound], for which, under setting [2], the Z-SCORE turned out to be 1.1.
`Nc1nc2c(ncn2CCC(CO)CO)c(=O)[nH]1` [PENCICLOVIR] yielded a Z-SCORE under setting [1] of -0.01.
Turning to `CC(=O)OCC(=O)[C@@]12OC(C)(C)O[C@@H]1C[C@H]1[C@@H]3C[C@H](F)C4=CC(=O)C=C[C@]4(C)[C@@]3(F)[C@@H](O)C[C@@]12C` [FLUOCINOLONE ACETONIDE 21-ACETATE, reference compound], the Z-SCORE under setting [2] is reported as 0.81.
On the same count and under the same terms, the figure for `CCCCC(=O)O[C@H]1CC[C@H]2[C@@H]3CCc4cc(O)ccc4[C@H]3CC[C@]12C` [17-BETA-ESTRADIOL 17-VALERATE, reference compound] is -0.44.
On the same count and under the same terms, the result for `Cc1ccc(Cl)c(Nc2ccccc2C(=O)O)c1Cl` [Meclomen, reference compound] reads -0.25.
Under setting [2], `CC1(C)S[C@@H]2[C@H](NC(=O)COc3ccccc3)C(=O)N2[C@H]1C(=O)O` [Penicillin V, reference compound] gave a Z-SCORE of 0.66.
As to `CCOC(=O)C1=C(C)NC(C)=C(C(=O)OCC)C1c1ccccc1/C=C/C(=O)OC(C)(C)C` [LACIDIPINE], under setting [1], the Z-SCORE is listed as -0.35.
Compound `CN1CCN(C2=Nc3cc(Cl)ccc3Nc3ccccc32)CC1` [Clozapine, reference compound] had a Z-SCORE under setting [2] of -0.31.
On the same count and under the same terms, the figure for `CCCNCC(O)COc1ccccc1C(=O)CCc1ccccc1` (stereo not drawn) [Rythmol, reference compound] is 0.2; for `COC(=O)[C@H](c1ccccc1Cl)N1CCc2sccc2C1` [clopidogrel, reference compound] it is -0.3.
For `CC(COc1ccccc1)N(CCCl)Cc1ccccc1` (stereo not drawn) [Dibenzyline, reference compound], the Z-SCORE under setting [2] is recorded as -1.18.
Under setting [1], `COC(=O)CCc1ccc(OCC(O)CNC(C)C)cc1` (stereo not drawn) [ESMOLOL HYDROCHLORIDE] had a Z-SCORE of 0.38.
The same measure, in the same setting: the figure for `NC(=O)OCC(COC(N)=O)c1ccccc1` [Felbamate] is -0.25; for `CCCCc1oc2ccccc2c1C(=O)c1cc(I)c(OCCN(CC)CC)c(I)c1` [AMIODARONE HYDROCHLORIDE] it is -0.19.
In turn, `Cl.OC1CCCCC1N1CCC(c2ccccc2)CC1` (racemic) [(±)-Vesamicol hydrochloride] registered a Z-SCORE under setting [1] of -0.04.
Turning to `CC[N+](C)(CC)CCOC(=O)C(O)(c1ccccc1)C1CCCCC1` (stereo not drawn) [OXYPHENONIUM BROMIDE], the Z-SCORE under setting [1] was -0.45.
On to `CC12CC3CC(C)(C1)CC(N)(C3)C2` [Memantine hydrochloride, reference compound], for which the Z-SCORE is, setting by setting: under setting [3], -1.15; under setting [2], 0.5.
Consider `Cc1ccc(S(=O)(=O)NC(=O)NN2CCCCCC2)cc1` [TOLAZAMIDE, reference compound], for which, under setting [2], the Z-SCORE is 0.3.
Under setting [1], `Clc1ccc2c(c1)CCc1cccnc1C2=C1CCNCC1` yielded a Z-SCORE of 0.4.
On to `CCCCNC(=O)NS(=O)(=O)c1ccc(C)cc1` [Tolbutamide, reference compound], for which the Z-SCORE under setting [2] amounted to 0.32.
In the case of `N=C(N)NC(=O)c1nc(Cl)c(N)nc1N`, under setting [1], the Z-SCORE was found to be 0.85.
Consider `O=C1CCC(N2C(=O)c3ccccc3C2=O)C(=O)N1` (stereo not drawn) [Thalidomide, reference compound], for which the Z-SCORE under setting [2] is -0.61.
In the case of `COc1ccc2[nH]c([S+]([O-])Cc3ncc(C)c(OC)c3C)nc2c1` (stereo not drawn) [OMEPRAZOLE], the Z-SCORE under setting [1] is recorded as -0.26.
In the case of `CO[C@H]1/C=C/O[C@@]2(C)Oc3c(C)c(O)c4c(c3C2=O)C2=NC3(CCN(CC(C)C)CC3)NC2=C(NC(=O)/C(C)=C\C=C\[C@H](C)[C@H](O)[C@@H](C)[C@@H](O)[C@@H](C)[C@H](OC(C)=O)[C@@H]1C)C4=O` [Rifabutin, reference compound], the Z-SCORE reads like this: under setting [1], 0.07; under setting [2], -1.04.
Turning to `c1ccc2c(c1)CCCC2C1=NCCN1` (stereo not drawn) [Tyzine, reference compound], under setting [2], the Z-SCORE is reported as 0.46.
Still for that read-out and setting: the result for `O=C1c2c(O)ccc(O)c2C(=O)c2c(NCCNCCO)ccc(NCCNCCO)c21` [MITOXANTRONE, reference compound] reads “flagged”.
Take `OCc1cccnc1` [3-PYRIDINEMETHANOL]: the Z-SCORE under setting [3] is recorded as -1.1.
As for `C[C@](N)(Cc1ccc(O)c(O)c1)C(=O)O` [Methyldopa, reference compound], the Z-SCORE under setting [2] turned out to be 0.63.
In turn, `COc1cc(C)nc(-n2nc(C)cc2OC)n1` [MEPIRIZOLE] gave a Z-SCORE under setting [1] of 0.59.
`CC(C)(C)NC(=O)[C@@H]1C[C@@H]2CCCC[C@@H]2CN1C[C@@H](O)[C@H](Cc1ccccc1)NC(=O)[C@H](CC(N)=O)NC(=O)c1ccc2ccccc2n1` [SAQUINAVIR MESYLATE] gave a Z-SCORE under setting [1] of -0.84.
Take `Oc1c(Cl)cc(Cl)c(Cl)c1Cc1c(O)c(Cl)cc(Cl)c1Cl` [Hexachlorophene, reference compound]: the Z-SCORE result under setting [2] is listed as “flagged”.
Take `CO[C@H]1/C=C/O[C@@]2(C)Oc3c(C)c(O)c4c(O)c(c(/C=N/N5CCN(C6CCCC6)CC5)c(O)c4c3C2=O)NC(=O)/C(C)=C\C=C\[C@H](C)[C@H](O)[C@@H](C)[C@@H](O)[C@@H](C)[C@H](OC(C)=O)[C@@H]1C` [RIFAPENTINE, reference compound]: the Z-SCORE worked out at 0.75 under setting [1] and 0.91 under setting [2].
For `CCc1ccc(CCOc2ccc(CC3SC(=O)NC3=O)cc2)nc1` (stereo not drawn) [PIOGLITAZONE HCl], the Z-SCORE under setting [1] is listed as -0.64.
